Source: patent publication US20260053812A1, “METHODS OF TREATING HYPERTENSION WITH A COMBINATION OF AN ALDOSTERONE SYNTHASE INHIBITOR AND A DIURETIC” (Mineralys Therapeutics, Inc., priority 2022, published 2026)
“And” between values parts separate entries of the source, which are not always exact repeats. Equal entries are not always repeated. “Also recorded” adds a separate entry of the source. Where two headings read alike, the source gives them in different places.

Experiments:
Format in all cases: in vivo, human
[1] = Pharmacokinetics (plasma concentration, Cmax, AUC, trough); conditions: for concentration at 7 day: human, plasma, oral, Day 7, read-out: Trough plasma concentration, Geo Mean
Description: Pharmacokinetic endpoints of this study are PK parameters, including, of area under the plasma concentration versus time curve (AUC), maximum plasma concentration (Cmax), time to maximum concentration (Tmax), and half-life (t1/2) will be summarized descriptively for Randomization (baseline) and Study Weeks 1, 4, and 8
(§1) PK/PD Analysis Set includes all subjects in the SAF who have sufficient data available for the analysis of pharmacokinetic and pharmacodynamic measurements. In the analyses based on PKPD, subjects will be analyzed according to the actual treatment received.

[2] = system: serum cortisol; assay: Pharmacodynamics: serum cortisol; conditions: for Cortisol, mean observed: BL
Description: as §1

[3] = system: 11-deoxycorticosterone; assay: Pharmacodynamics: 11-deoxycorticosterone
Description: as §1

[4] = system: plasma renin activity; assay: Pharmacodynamics: plasma renin activity (PRA); conditions: for Renin Activity, mean observed: BL
Description: as §1

[5] = Estimated glomerular filtration rate (eGFR, CKD-EPI equation); conditions: for Estimated Glomerular Filtration Rate, mean observed / Estimated Glomerular Filtration Rate, mean change from baseline: Part 1
[6] = steady state, Day 28, 100 mg QD Part 1

## CC(=O)N[C@H]1CC[C@H](NC(=O)CN2CCN(c3nncc(-c4ccc(C)cc4)n3)CC2)CC1 [Compound A HBr]
[1]; across doses
  Systemic exposure expressed as Cmax or AUC: increased with increasing dose
[1]; 12.5 mg, 12.5 mg BID
  concentration at 7 day: 20.4 ng/mL
[1]; 12.5 mg, 12.5 mg QD
  concentration at 7 day: 6.55 ng/mL
[1]; 25 mg, 25 mg BID
  concentration at 7 day: 49.6 ng/mL
[1]; 50 mg, 50 mg QD
  concentration at 7 day: 16.6 ng/mL
[1]; 100 mg, 100 mg QD Part 1
  concentration at 7 day: 53.4 ng/mL
[1]; 100 mg, 100 mg QD Part 2
  concentration at 7 day: 35.1 ng/mL
[1]; [6]
  AUC0-24, Median: 15000 ng·h/mL
  Cmax, Geo Mean: 1370 ng/mL
[2]; Part 1, 12.5 mg BID
  Cortisol, mean observed: 10.195 µg/dL
[2]; Part 1, 12.5 mg QD
  Cortisol, mean observed: 9.443 µg/dL
[2]; Part 1, 25 mg BID
  Cortisol, mean observed: 10.577 µg/dL
[2]; Part 1, 50 mg QD
  Cortisol, mean observed: 10.807 µg/dL
[2]; Part 1, 100 mg QD
  Cortisol, mean observed: 11.272 µg/dL
[2]; Part 1 active arms (range across doses), Week 4
  Serum cortisol percent change from baseline: 3.8% to 19.2%
[2]; Part 1 active arms (range across doses), Week 8
  Serum cortisol percent change from baseline: 20.6% to 51.4%
[2]; Part 1 active arms (range across doses), Week 12, listed as lorundrostat
  Serum cortisol percent change from baseline: −1.2% to 22.7% and −1.2 to 22.6%
[2]; Part 2 100 mg QD, Week 12
  Serum cortisol percent change from baseline: 1.5%
[2]; Part 2, 100 mg QD
  Cortisol, mean observed: 11.118 µg/dL
[2]; Part 2, 100 mg QD, Week 4
  Serum cortisol percent change from baseline: 20.1%
[2]; Part 2, 100 mg QD, Week 8
  Serum cortisol percent change from baseline: 153.4%
[2]; during the trial, listed as lorundrostat
  Adrenocortical insufficiency: no adrenocortical insufficiency
[2]; pooled (Part 1 and Part 2) 100 mg QD safety set (n=60)
  Effect on serum cortisol: no effects on serum cortisol
[2]; summary of trial
  Morning serum cortisol levels: modestly increased
[3]; Part 1, 12.5 mg BID, Wk 12
  11-Deoxycorticosterone, mean observed: 8.0 ng/dL
[3]; Part 1, 12.5 mg QD, BL
  11-Deoxycorticosterone, mean observed: 8.3 ng/dL
[3]; Part 1, 25 mg BID, Wk 12
  11-Deoxycorticosterone, mean observed: 8.0 ng/dL
[3]; Part 1, 50 mg QD, BL
  11-Deoxycorticosterone, mean observed: 8.3 ng/dL
[3]; Part 1, 100 mg QD, Wk 12
  11-Deoxycorticosterone, mean observed: 8.4 ng/dL
[3]; Part 1 active treatment arms, Week 4 compared with placebo
  11-deoxycorticosterone: Transient increases
[3]; Part 2, 100 mg QD, BL
  11-Deoxycorticosterone, mean observed: 10.71 ng/dL
[3]; summary of trial
  11-deoxycorticosterone levels: unaffected
[4]; Part 1, 12.5 mg BID
  Renin Activity, mean observed: 1.299 µg/L/h
[4]; Part 1, 12.5 mg QD
  Renin Activity, mean observed: 0.950 µg/L/h
[4]; Part 1, 25 mg BID
  Renin Activity, mean observed: 1.104 µg/L/h
[4]; Part 1, 50 mg QD
  Renin Activity, mean observed: 1.258 µg/L/h
[4]; Part 1, 100 mg QD
  Renin Activity, mean observed: 0.956 µg/L/h
[4]; Part 2, 100 mg QD
  Renin Activity, mean observed: 5.417 µg/L/h
[4]; pharmacodynamic response, all doses, listed as lorundrostat
  Plasma renin activity: commensurate increase; also recorded: increased in all subjects treated with lorundrostat
[5]; 100 mg QD, Part 1, Week 2
  eGFR mean maximum decline relative to baseline: 10.91 mL/min/1.73 m^2
[5]; 12.5 mg BID, BL
  Estimated Glomerular Filtration Rate, mean observed: 81.70 mL/min/1.73 m^2
[5]; 12.5 mg BID, Week 1
  Estimated Glomerular Filtration Rate, mean change from baseline: −2.25 mL/min/1.73 m^2
  Estimated Glomerular Filtration Rate, mean observed: 79.45 mL/min/1.73 m^2
[5]; 12.5 mg BID, Week 2
  Estimated Glomerular Filtration Rate, mean change from baseline: −3.69 mL/min/1.73 m^2
  Estimated Glomerular Filtration Rate, mean observed: 78.86 mL/min/1.73 m^2
[5]; 12.5 mg BID, Week 3
  Estimated Glomerular Filtration Rate, mean change from baseline: −5.17 mL/min/1.73 m^2
  Estimated Glomerular Filtration Rate, mean observed: 77.38 mL/min/1.73 m^2
[5]; 12.5 mg BID, Week 4
  Estimated Glomerular Filtration Rate, mean change from baseline: −6.58 mL/min/1.73 m^2
  Estimated Glomerular Filtration Rate, mean observed: 76.30 mL/min/1.73 m^2
[5]; 12.5 mg BID, Week 5
  Estimated Glomerular Filtration Rate, mean change from baseline: −7.58 mL/min/1.73 m^2
  Estimated Glomerular Filtration Rate, mean observed: 73.84 mL/min/1.73 m^2
[5]; 12.5 mg BID, Week 6
  Estimated Glomerular Filtration Rate, mean change from baseline: −6.45 mL/min/1.73 m^2
  Estimated Glomerular Filtration Rate, mean observed: 74.70 mL/min/1.73 m^2
[5]; 12.5 mg BID, Week 7
  Estimated Glomerular Filtration Rate, mean change from baseline: −7.03 mL/min/1.73 m^2
  Estimated Glomerular Filtration Rate, mean observed: 75.85 mL/min/1.73 m^2
[5]; 12.5 mg BID, Week 8
  Estimated Glomerular Filtration Rate, mean change from baseline: −6.66 mL/min/1.73 m^2
  Estimated Glomerular Filtration Rate, mean observed: 76.32 mL/min/1.73 m^2
[5]; 12.5 mg QD, BL
  Estimated Glomerular Filtration Rate, mean observed: 77.87 mL/min/1.73 m^2
[5]; 12.5 mg QD, Week 1
  Estimated Glomerular Filtration Rate, mean change from baseline: −4.30 mL/min/1.73 m^2
  Estimated Glomerular Filtration Rate, mean observed: 73.57 mL/min/1.73 m^2
[5]; 12.5 mg QD, Week 2
  Estimated Glomerular Filtration Rate, mean change from baseline: −4.87 mL/min/1.73 m^2
  Estimated Glomerular Filtration Rate, mean observed: 73.00 mL/min/1.73 m^2
[5]; 12.5 mg QD, Week 3
  Estimated Glomerular Filtration Rate, mean change from baseline: −2.05 mL/min/1.73 m^2
  Estimated Glomerular Filtration Rate, mean observed: 77.21 mL/min/1.73 m^2
[5]; 12.5 mg QD, Week 4
  Estimated Glomerular Filtration Rate, mean change from baseline: −5.45 mL/min/1.73 m^2
  Estimated Glomerular Filtration Rate, mean observed: 73.40 mL/min/1.73 m^2
[5]; 12.5 mg QD, Week 5
  Estimated Glomerular Filtration Rate, mean change from baseline: −3.60 mL/min/1.73 m^2
  Estimated Glomerular Filtration Rate, mean observed: 75.25 mL/min/1.73 m^2
[5]; 12.5 mg QD, Week 6
  Estimated Glomerular Filtration Rate, mean change from baseline: −6.28 mL/min/1.73 m^2
  Estimated Glomerular Filtration Rate, mean observed: 73.39 mL/min/1.73 m^2
[5]; 12.5 mg QD, Week 7
  Estimated Glomerular Filtration Rate, mean change from baseline: −7.17 mL/min/1.73 m^2
  Estimated Glomerular Filtration Rate, mean observed: 72.50 mL/min/1.73 m^2
[5]; 12.5 mg QD, Week 8
  Estimated Glomerular Filtration Rate, mean change from baseline: −3.67 mL/min/1.73 m^2
